This passage reports Activity results from ChEMBL document CHEMBL5034018, “LXR-Mediated Regulation of Marine-Derived Piericidins Aggravates High-Cholesterol Diet-Induced Cholesterol Metabolism Disorder in Mice” (J Med Chem, 2021).

This experiment in a line: Down regulation of FXR mRNA level in human HepG2 cells at 1 uM by RT-qPCR analysis. The experiment is classed as functional. A general note: In qPCR the cycle at which signal appears reflects the starting amount.

Molecule `C/C=C(\C)[C@H](O)[C@H](C)/C=C(C)/C=C/C/C(C)=C/Cc1nc(OC)c(OC)c(O)c1C` [PIERICIDIN A] yielded an Activity of 56%.
